The text below walks through data of ChEMBL document CHEMBL3414522, “Design, synthesis, and biological evaluation of novel matrix metalloproteinase inhibitors as potent antihemorrhagic agents: from hit identification to an optimized lead” (J Med Chem, 2015).

Molecules are shown by their SMILES.

Broadly, the amount remaining is what is left of the initial amount, in per cent. A word on the Papp: it is the rate of passage across a membrane or cell layer, normalised by area and donor concentration.

A short description of data set [1]: in vitro. The following applies: rat, liver microsomes.
The nature of data set [2]: in vitro. The following applies: human, liver microsomes. (Microsomes from liver hold many membrane-bound enzymes, among them those of drug oxidation.)
The nature of data set [3]: in vitro. The following applies: mouse, liver microsomes.
Data set [4] is described as follows: Apparent permeability from apical to basolateral side in human Caco2 cells at 2 uM after 120 mins by LC-MS/MS analysis. The following applies: caco-2, 2 h. The data set is classed as ADME, cell-based. (In general: Caco-2 cells form a polarised layer with tight junctions and transporters.)

For `O=C(NO)C1(S(=O)(=O)c2ccc(Oc3ccc(OC(F)(F)F)cc3)cc2)CCC2(CCNCC2)C1` (centres undefined), the results for the fraction remaining at 20 min, 1 µM in the data set “in vitro [1]”, in “in vitro [2]” and in “in vitro [3]” were 95.6%, 92.1% and 87.2%, respectively.
The like results for `CNC(=O)c1ccc(Oc2ccc(S(=O)(=O)C3(C(=O)NO)CCC4(CCNCC4)C3)cc2)cc1` (centres undefined) were, in that order, 99.8%, 91.1% and 97.5%.
As for `CNC(=O)c1ccc(Oc2ccc(S(=O)(=O)[C@@]3(C(=O)NO)CCC4(CCNCC4)C3)cc2)cc1`, the apparent permeability coefficient (Papp) in data set [4] amounted to 0.00059 ×10⁻⁶ cm/s. Also, the share remaining at 20 min, 1 µM is 97.4% in “in vitro [1]”, 97% in the data set “in vitro [2]” and 89.6% in “in vitro [3]”.
The like results for `CNC(=O)c1ccc(Oc2ccc(S(=O)(=O)[C@]3(C(=O)NO)CCC4(CCNCC4)C3)cc2)cc1` were, in that order, 0.00016 ×10⁻⁶ cm/s, 98.1%, 93.5% and 98%.
